Test results as given in patent publication US20230233425A1, “USE OF VOLATILE COMPOSITIONS TO LIMIT OR ELIMINATE THE PERCEPTION OF MALODOR” (Firmenich SA, priority 2017, published 2023).
“And” between values parts separate entries of the source, which are not always exact repeats. Equal entries are not always repeated. Where two headings read alike, the source gives them in different places. Marks after values point to notes of the source that are not given here.

What was measured:
[1] = test system: geonol malodor (earthy/moss odor) perception; assay: Sensory evaluation of geonol earthy/moss odor in iso-intense binary mixtures (glass jars); assay type: in vivo, human; conditions: iso-intense binary mixture
Description: Sensory Evaluation: Five 16 oz glass jars containing either REF (geonol only), geonol only control, antagonist only, mixture of geonol and isointense antagonist, or mixture of geonol and low intensity antagonist were presented to the panelists (last four samples were randomized across panelists). The panelists were asked to familiarize themselves with the earthy/moss odor quality from the REF jar first, then rate the pleasantness, earthy/moss odor intensity and overall odor intensity of the next four samples on a 0-10 linear scale. The inter-stimulus interval between the samples was two minutes to avoid adaptation.

[2] = test system: geonol earthy/moss odor perception; assay: Human sensory performance of test compounds with and without geonol; assay type: in vivo; conditions: for % Earthy/Moss Odor: Test Compound Only
Outline: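 Panelists first learned the earthy/moss quality from a geonol-only reference, then rated pleasantness, earthy/moss intensity and overall intensity of geonol alone, antagonist alone, and geonol mixed with isointense or low-intensity antagonist on a 0-10 linear scale. Samples were presented in glass jars in randomized order with two-minute intervals.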

Olfr749 = molecular target: T1, Olfr749 (Mus musculus, UniProt E9Q438); assay: Indole antagonist dose-response, cAMP HTRF in HEK293T, vs indole EC80; assay type: cell-based; conditions: Table 23
T1 construct: Flag; Rho tag; expressed in transfected cells
T1 sequence (E9Q438 1-313): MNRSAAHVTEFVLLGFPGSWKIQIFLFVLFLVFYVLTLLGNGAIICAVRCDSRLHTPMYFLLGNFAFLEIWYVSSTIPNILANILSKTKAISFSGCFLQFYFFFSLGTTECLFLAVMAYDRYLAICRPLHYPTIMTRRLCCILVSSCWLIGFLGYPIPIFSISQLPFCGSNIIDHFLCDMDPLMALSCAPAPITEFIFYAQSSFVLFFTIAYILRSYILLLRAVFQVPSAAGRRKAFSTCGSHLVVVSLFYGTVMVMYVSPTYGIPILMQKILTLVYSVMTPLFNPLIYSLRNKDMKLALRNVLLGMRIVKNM
Protocol: (§1) Functional dose-response experiments were performed to identify compounds capable of antagonizing indole-sensitive receptors previously identified (U.S. Pat. No. 9,914,760 B2). Using a cell-based assay, mouse receptor Olfr738, Olfr739, Olfr740, Olfr741, 0fr742, Olfr743, Olfr744, Olfr746, Olfr748 and Olfr749 were tested in an HEK293T cell line wherein the endogenous RTP1 gene has been activated and the odorant receptor chaperone was expressed (described in WO2016201153A1). The receptor genes were tagged with a Flag-Rho tag combination. Receptor genes were co-transfected with the canonical olfactory human G-protein alpha subunit Golf gene. Co-expression of the human Golf activates the Gs transduction pathway that leads to an internal cAMP increase upon binding to the appropriate ligand (indole here). Odorant-induced activity was detected by measuring the cAMP increase in the cytosol using an HTRF based kit (CisBio, cAMP dynamic 2 kit, cat. 62AM4PEJ). The receptors were exposed to binary mixtures of increasing concentrations of the test compounds in the presence of a potent activation concentration of indole (EC80) for each receptor. […] All the compounds listed decreased the indole induced activity of at least one receptor.

Olfr746 = molecular target: T2, Olfr746 (Mus musculus, UniProt E9Q840); assay: as above; assay type: cell-based; conditions: Table 23
T2 construct: Flag; Rho tag; expressed in transfected cells
T2 sequence (E9Q840 1-314): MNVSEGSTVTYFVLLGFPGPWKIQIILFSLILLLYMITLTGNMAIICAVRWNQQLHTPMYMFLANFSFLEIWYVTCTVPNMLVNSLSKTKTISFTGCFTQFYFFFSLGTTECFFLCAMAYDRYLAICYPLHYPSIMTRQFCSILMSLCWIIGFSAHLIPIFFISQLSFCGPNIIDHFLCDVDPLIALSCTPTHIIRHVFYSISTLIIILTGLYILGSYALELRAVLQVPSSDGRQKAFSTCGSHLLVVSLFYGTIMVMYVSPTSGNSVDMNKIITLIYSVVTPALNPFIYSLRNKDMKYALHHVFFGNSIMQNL
Protocol: as §1

Olfr743 = Olfr743 (Mus musculus, UniProt L7N1Y2); assay: as above; assay type: cell-based; conditions: Table 23
Chain of Olfr743 (L7N1Y2 entry or part of it): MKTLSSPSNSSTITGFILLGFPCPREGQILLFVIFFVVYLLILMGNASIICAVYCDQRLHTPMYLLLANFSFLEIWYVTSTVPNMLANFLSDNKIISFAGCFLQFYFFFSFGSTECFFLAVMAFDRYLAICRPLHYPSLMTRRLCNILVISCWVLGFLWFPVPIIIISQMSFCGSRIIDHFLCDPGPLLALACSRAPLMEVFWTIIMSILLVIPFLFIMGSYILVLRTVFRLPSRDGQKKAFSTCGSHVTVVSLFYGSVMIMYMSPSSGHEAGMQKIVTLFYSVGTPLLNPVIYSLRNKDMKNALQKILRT
Protocol: as §1

Olfr742 = Olfr742 (Mus musculus, UniProt A2RTP5); assay: as above; assay type: cell-based; conditions: vs indole EC80; for IC50: read-out: Olfr742 IC50; for Emax: HEK-293T, read-out: Olfr742 % Inhibition
Chain of Olfr742 (A2RTP5 entry or part of it): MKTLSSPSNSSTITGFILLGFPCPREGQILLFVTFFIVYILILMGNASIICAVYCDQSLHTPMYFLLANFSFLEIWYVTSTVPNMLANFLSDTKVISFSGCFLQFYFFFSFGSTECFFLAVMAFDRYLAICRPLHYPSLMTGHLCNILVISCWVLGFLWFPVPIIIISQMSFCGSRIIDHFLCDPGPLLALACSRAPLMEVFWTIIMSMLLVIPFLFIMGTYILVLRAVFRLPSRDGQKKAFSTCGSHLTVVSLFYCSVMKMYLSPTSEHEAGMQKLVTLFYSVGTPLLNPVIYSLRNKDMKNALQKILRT
Protocol: (§2) Using a cell-based assay, mouse receptor Olfr738, Olfr739, Olfr740, Olfr741, 0fr742, Olfr743, Olfr744, Olfr746, Olfr748 and Olfr749 were tested in an HEK293T cell line wherein the endogenous RTP1 gene has been activated and the odorant receptor chaperone was expressed (described in WO2016201153A1). The receptor genes were tagged with a Flag-Rho tag combination. Receptor genes were co-transfected with the canonical olfactory human G-protein alpha subunit Golf gene. Co-expression of the human Golf activates the Gs transduction pathway that leads to an internal cAMP increase upon binding to the appropriate ligand (indole here). Odorant-induced activity was detected by measuring the cAMP increase in the cytosol using an HTRF based kit (CisBio, cAMP dynamic 2 kit, cat. 62AM4PEJ).

Olfr740 = Olfr740 (Mus musculus, UniProt E9PV79); assay: as above; assay type: cell-based; conditions: vs indole EC80; for IC50: read-out: Olfr740 IC50; for Emax: HEK-293T, read-out: Olfr740 % Inhibition
Chain of Olfr740 (E9PV79 entry or part of it): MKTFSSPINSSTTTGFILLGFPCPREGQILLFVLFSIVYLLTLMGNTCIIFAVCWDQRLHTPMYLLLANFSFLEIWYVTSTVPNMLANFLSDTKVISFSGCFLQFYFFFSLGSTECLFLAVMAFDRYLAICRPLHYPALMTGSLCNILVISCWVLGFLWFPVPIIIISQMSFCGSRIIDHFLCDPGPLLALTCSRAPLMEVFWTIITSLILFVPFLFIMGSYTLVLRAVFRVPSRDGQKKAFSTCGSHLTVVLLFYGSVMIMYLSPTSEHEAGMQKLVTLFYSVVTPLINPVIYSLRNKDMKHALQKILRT
Protocol: as §2

Olfr741 = Olfr741 (Mus musculus, UniProt L7N1Y5); assay: as above; assay type: cell-based
Chain of Olfr741 (L7N1Y5 entry or part of it): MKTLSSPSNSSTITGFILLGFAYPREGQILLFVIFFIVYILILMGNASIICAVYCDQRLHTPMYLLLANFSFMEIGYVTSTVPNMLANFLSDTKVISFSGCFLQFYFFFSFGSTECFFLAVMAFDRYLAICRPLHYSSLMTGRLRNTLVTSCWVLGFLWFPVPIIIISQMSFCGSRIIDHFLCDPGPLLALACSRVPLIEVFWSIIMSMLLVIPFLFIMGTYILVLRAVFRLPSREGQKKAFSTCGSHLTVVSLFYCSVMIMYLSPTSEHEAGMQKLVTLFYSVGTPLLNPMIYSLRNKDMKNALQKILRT
Protocol: as §2

Olfr748 = Olfr748 (Mus musculus, UniProt E9Q9Z0); assay: as above; assay type: cell-based; conditions: Table 23
Chain of Olfr748 (E9Q9Z0 entry or part of it): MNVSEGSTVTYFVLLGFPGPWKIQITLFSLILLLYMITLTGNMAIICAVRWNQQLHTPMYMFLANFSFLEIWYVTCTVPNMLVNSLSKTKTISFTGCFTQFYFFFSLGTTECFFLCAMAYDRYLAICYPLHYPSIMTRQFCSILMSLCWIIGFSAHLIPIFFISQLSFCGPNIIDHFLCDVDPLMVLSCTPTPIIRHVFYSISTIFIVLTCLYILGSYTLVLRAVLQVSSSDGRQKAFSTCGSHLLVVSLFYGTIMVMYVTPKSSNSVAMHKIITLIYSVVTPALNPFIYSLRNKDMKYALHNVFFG
Protocol: as §2

Olfr738 = Olfr738 (Mus musculus, UniProt L7N1X7); assay: as above; assay type: cell-based; conditions: vs indole EC80; for IC50: read-out: Olfr738 IC50
Chain of Olfr738 (L7N1X7 entry or part of it): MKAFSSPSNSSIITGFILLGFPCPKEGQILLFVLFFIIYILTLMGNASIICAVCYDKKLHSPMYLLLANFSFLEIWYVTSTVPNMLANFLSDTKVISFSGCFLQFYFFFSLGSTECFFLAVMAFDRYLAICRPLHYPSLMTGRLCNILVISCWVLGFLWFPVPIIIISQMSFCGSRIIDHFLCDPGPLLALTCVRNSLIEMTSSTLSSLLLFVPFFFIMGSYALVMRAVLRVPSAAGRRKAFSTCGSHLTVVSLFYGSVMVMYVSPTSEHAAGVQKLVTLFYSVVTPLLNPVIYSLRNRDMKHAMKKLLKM
Protocol: as §2

[3] = test system: OR11A1, or the OR2M3 olfactory receptor; assay: Geonol olfactory receptor antagonist cell-based screening, inhibitory dose-response vs geonol EC80; set-up: species or system human; conditions: geonol at EC80; for IC50: read-out: IC50
[4] = test system: geonol receptors Olfr339, Olfr1487, Olfr1A1, OR11A1, Olfr96; assay: Antagonists of geonol receptors (Example 11); assay type: cell-based, mouse and human; set-up: Inhibition(%): concentration or dose not given beside the values; conditions: Table 18
[5] = test system: 1-octen-3-ol receptors OR2W1, Olfr93, Olfr120, Olfr398; assay: Antagonists of 1-octen-3-ol receptors (Example 11); assay type: cell-based, mouse and human; set-up: Inhibition(%): concentration or dose not given beside the values; conditions: Table 19
Olfr744 = molecular target: T3, Olfr744 (Mus musculus, UniProt Q7TRM0); assay: Indole antagonist dose-response, cAMP HTRF in HEK293T, vs indole EC80; assay type: cell-based; conditions: Table 23
T3 construct: Flag; Rho tag; expressed in transfected cells
T3 sequence (Q7TRM0 1-323): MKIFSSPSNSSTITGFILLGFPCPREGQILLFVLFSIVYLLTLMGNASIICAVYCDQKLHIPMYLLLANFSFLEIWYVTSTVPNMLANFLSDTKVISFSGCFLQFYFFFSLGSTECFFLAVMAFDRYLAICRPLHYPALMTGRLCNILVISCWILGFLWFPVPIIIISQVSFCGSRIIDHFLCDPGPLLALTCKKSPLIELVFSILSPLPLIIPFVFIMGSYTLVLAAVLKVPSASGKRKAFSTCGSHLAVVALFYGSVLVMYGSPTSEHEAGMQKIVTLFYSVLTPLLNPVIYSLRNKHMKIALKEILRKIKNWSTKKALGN
Protocol: as §1

Olfr739 = Olfr739 (Mus musculus, UniProt E9Q1P0); assay: as above; assay type: cell-based
Chain of Olfr739 (E9Q1P0 entry or part of it): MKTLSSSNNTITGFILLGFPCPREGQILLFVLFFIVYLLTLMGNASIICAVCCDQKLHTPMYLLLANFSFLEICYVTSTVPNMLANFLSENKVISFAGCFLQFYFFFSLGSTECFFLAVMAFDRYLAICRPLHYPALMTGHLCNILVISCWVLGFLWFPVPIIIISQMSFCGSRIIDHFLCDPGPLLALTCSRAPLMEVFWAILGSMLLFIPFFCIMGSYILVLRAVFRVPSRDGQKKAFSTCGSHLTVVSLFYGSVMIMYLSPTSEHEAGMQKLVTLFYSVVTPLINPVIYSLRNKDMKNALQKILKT
Protocol: as §1

[6] = Low Dilution Test Compound + Geonol (0.1%)
[7] = Medium Dilution Test Compound + Geonol (0.1%)
[8] = Table 22, second listing of the same compounds
[9] = Table 22, first listing (r7-r45)

| Compound | % Earthy/Moss Odor Remaining [2, 6] [%] | % Earthy/Moss Odor Remaining [2, 7] [%] | % Earthy/Moss Odor [2] [%] | IC50 (Olfr749) [µM] | Olfr749 % Inhibition (Olfr749) [%] | IC50 (Olfr746) [µM] | Olfr746 % Inhibition (Olfr746) [%] | IC50 (Olfr743) [µM] | Olfr743 % Inhibition (Olfr743) [%] | Olfr742 % Inhibition (Olfr742; Table 22, first listing) [%] | IC50 (Olfr742; Table 22, first listing) [µM] | Olfr742 % Inhibition (Olfr742; [8]) [%] | Olfr740 % Inhibition (Olfr740; Table 22, first listing) [%] | IC50 (Olfr740; Table 22, first listing) [µM] | Olfr740 % Inhibition (Olfr740; [8]) [%] | IC50 (Olfr741; [8]) [µM] | Olfr741 % Inhibition (Olfr741; [8]) [%] | IC50 (Olfr748) [µM] | Olfr748 % Inhibition (Olfr748) [%] | Olfr738 % Inhibition (Olfr738; Table 22, first listing) [%] | further results |
| --- | --- | --- | --- | --- | --- | --- | --- | --- | --- | --- | --- | --- | --- | --- | --- | --- | --- | --- | --- | --- | --- |
| 1-(3,3-dimethylcyclohexen-1-yl)pent-4-en-1-one; 1-(5,5-dimethylcyclohexen-1-yl)pent-4-en-1-one | 85.80 | 72.30 | 34.50 | 46.2 | 90.61 | 89.4 | 94.28 | 210 | 59.11 | 146.91 | 4.3 | 90.61 | 179.31 | 1.68 | 94.28 | 81.6 | 66.47 | 81.6 | 66.47 | 33.49 | % Remaining in human sensory tests [1]: 58* %; IC50 (Olfr741; Table 22, first listing): 131 µM; Olfr741 % Inhibition (Olfr741; Table 22, first listing): 124.57%; IC50 (Olfr738; Table 22, first listing): 6.29 µM; Olfr738 % Inhibition (Olfr738; [8]): 59.11%; IC50 [3]: 111 µM and 148 µM |
| 3-(4-hydroxy-4-methylpentyl)cyclohex-3-ene-1-carbaldehyde; 4-(4-hydroxy-4-methylpentyl)cyclohex-3-ene-1-carbaldehyde | 85.70 | 78.70 | 15.40 | 233 | 62.05 | 373 | 43.95 |  |  | 41.42 | 182 | 62.05 | 72.15 | 185 | 43.95 | 213 | 48.14 | 213 | 48.14 | 14.67 | IC50 (Olfr738; Table 22, first listing): 166 µM; % Inhibition [3]: 60%; IC50 [3]: 217 µM |
| C=CCCC(=O)C1=CCCC(C)(C)C1 [1-(5,5-dimethylcyclohexen-1-yl)pent-4-en-1-one] |  |  |  |  |  | 224 | 58.87 |  |  |  |  |  |  |  |  |  |  |  |  |  | Emax (Olfr740; Table 22, first listing): 91.2%; Emax (Olfr740; [8]): 58.9%; IC50 (Olfr740; [9]): 63.6 µM; IC50 [4]: 220 µM; Inhibition(%) [4]: 40% |
| c1nc2c(o1)CCCCCCCCCC2 [4,5,6,7,8,9,10,11,12,13-decahydrocyclododeca[d][1,3]oxazole] |  |  |  | 70 | 57.85 |  |  | 58.9 | 31.68 |  |  |  |  |  |  | 216 | 12.61 | 216 | 12.61 | 93.54 | IC50 [5]: 38 µM; Inhibition(%) [5]: 77%; IC50 (Olfr744): 117 µM; Olfr744 % Inhibition (Olfr744): 38.37%; Olfr739 % Inhibition (Olfr739; Table 22, first listing): 61.91%; IC50 (Olfr739; [9]): 24.1 µM; Olfr739 % Inhibition (Olfr739; [8]): 38.37%; Emax (Olfr742; Table 22, first listing): 59.7%; Emax (Olfr742; [8]): 57.9%; IC50 (Olfr742; [9]): 26.8 µM; Emax (Olfr740; Table 22, first listing): 102%; IC50 (Olfr740; [9]): 5.52 µM; IC50 (Olfr741; Table 22, first listing): 33.7 µM; Olfr741 % Inhibition (Olfr741; Table 22, first listing): 62.10%; IC50 (Olfr738; [9]): 9.26 µM; Olfr738 % Inhibition (Olfr738; [8]): 31.68% |
